Experiments:
[1] = test system: human rheumatoid arthritis synovial membrane (RASM); test: Human RASM transplanted in SCID mice (RASM/SCID chimeric mouse); type: in vivo, human tissue in SCID mice
Description: Small pieces of human synovial tissue from patients with rheumatoid arthritis were transplanted into SCID mice. […] CD86, HLA-DR, TNFα and IL-6 expression was measured by immunohistology. (B) the weight of explants retrieved from the mice treated as indicated after 12d.
This study used the previously developed SCID-HuRAg murine model (20). Briefly, pannus tissue, consisting of the leading edge of the invading synovial membrane into articular cartilage and bone, was collected as a single mass from RA patients at the time of arthroplastic surgery with full ethical approval. A block of 4-8 mm in diameter was implanted subcutaneously into the back of 6- to 7-week-old male SCID mice (CB.17/Icr; Charles River Japan, Tokyo, Japan), which had been bred under specific pathogen-free conditions. Successful implantation of human RA tissue was assessed visually 4 weeks after implantation, after which therapeutic manipulation of the mice was undertaken. […] The mice were sacrificed 12 days after injection to allow removal of the implanted tissue.
The degree of synovial inflammation of the implanted tissue was assessed as previously described. The histological findings were scored according to two different scoring systems: Koizumi's (40) or Rooney's method (41).
Paraffin embedded tissue sections were used for immunostaining for CD86 and HLA-DR. Frozen tissue sections were stained for the detection of cytokines (TNF, IL-1, IL-6, and IL-10). The tissue sections were blocked for endogenous peroxidase activity with 0.3% hydrogen peroxide in methanol for 15 min. Non-specific antibody binding was blocked with 10% normal goat serum for 1 hr at room temperature. The sections were incubated with specific antibody or normal IgG for 1 hr at 37° C. The sections incubated with anti-CD86 antibody were treated with biotinylated secondary antibody, then visualised using a kit (Vectastatin ABC kit, Vector) with 3-amino-n-ethylcarbazole (Nichirei, Tokyo) as a substrate. The other sections were treated with peroxidase-conjugated anti-mouse IgG (Histofine Simple Stain MAX PO; Nichirei, Tokyo) for 30 min at room temperature and developed with 3-amino-n-ethylcarbazole (Nichirei, Tokyo) for visualization. Sections were counterstained with Mayer haematoxylin for 10 sec and mounted in aqueous permanent mounting solution (Nichirei, Tokyo).
The serum levels of human IL-4, IL-6 and IL-10 were measured by a quantitative sandwich enzyme immunoassay technique (Quantikine HS, R&D systems) according to the manufacturer's instructions.

[2] = test system: autologous responder T cells; test: Regulatory T cell activity after co-culture with DC(BiP): responder T cell proliferation to anti-CD3; type: cell-based, human
Description: FIG. 12: Co-culture with BiP-treated dendritic cells (DC) leads T cells to have regulatory function. After 4d pre-incubation with either autologous or allogeneic DC, or DC(BiP), T cells were washed and set up in autologous cultures with irradiated peripheral blood mononuclear cells (PBMC) and responder T cells (1:1:1 ratio) (105 cells each/well) in the presence or absence of anti-CD3 antibody (1/2000 dilution). […] (B) a representative experiment showing an autologous experiment using Δ counts per minute (Δcpm) (stimulated-unstimulated cpm) following stimulation with anti-CD3 antibody to irradiated PBMC (irMC) or responder T cells (rT) alone and cultures with irMC+rT+T cells prestimulated (pT) by autologous DC populations as indicated; (C) mean ±standard deviation of unstimulated and stimulated cultures from a representative experiment where autologous irMC+rT+pT, previously cocultured with allogeneic DC populations as indicated, were present in ratio 1:1:1.
Purified T cells (>95% T cells) (2.10^6/well) either autologous or allogeneic were cultured in the absence or presence of irradiated DC populations in 24-well flat-bottomed plates at a IDC: 10 T cell ratio for 4 days. […]

[3] = test system: IL-8; test: IL-8 in supernatants of PBMC from rheumatoid arthritis patients (MSD multicytokine array); type: cell-based, human; conditions: PBMC of RA patients on methotrexate, BiP 20 μg/ml, 96 h, 16 paired samples, p=0.0001
Description: Peripheral blood mononuclear cells (PBMC) were separated from heparinised blood taken from patients with rheumatoid arthritis being treated with methotrexate. PBMC were either left unstimulated or stimulated with BiP (20 μg/ml). Supernatants were taken at 96 h, aliquoted and stored at −80° C. until required.
Supernatants from unstimulated or BiP stimulated cultures were analysed in a multicytokine array (MSD). The results from 16 paired samples are shown as median and 95 percent confidence limits.

[4] = 10 μg/mouse single i.v. injection, 12 days
[5] = BiP 10 μg/animal i.v., 12d (FIG. 15A)

BiP: 78 kD endoplasmic reticulum chaperone protein as disclosed in WO 00/21995; recombinant human protein
human IL-6 in mouse sera ([1]; 10 μg/mouse i.v., 12 days): 0.5 ± 0.2 pg/mL
Koizumi score of synovial inflammation [1, 4]: 6.1±2.6
Rooney score of synovial inflammation [1, 4]: 16±6
IL-10 in explants ([1]; BiP 10 μg/animal i.v., 12d): no increase in IL-10 was detected
expression of CD86 and HLA-DR in explant sections (immunohistology) [1, 5]: Significantly reduced expression of CD86 and HLA-DR
production of human TNFα and IL-6 in explants (immunohistology) [1, 5]: decreased production of human TNFα and IL-6
% inhibition of responder T cell proliferation to anti-CD3 antibody ([2]; T cells from 4d co-culture with allogeneic DC(BiP), n=3): 28.7±13.3 % inhibition
% inhibition of responder T cell proliferation to anti-CD3 antibody ([2]; T cells from 4d co-culture with autologous DC(BiP), n=5): 63.8±13.7 % inhibition
IL-8 production [3]: significantly less IL-8

Reference: patent publication US20080155704A1, “Methods and Compositions for Determining in vivo Activity of BiP” (King's College London, priority 2006, published 2008)
